The results in this text go back to patent US20080280879A1, “SUBSTITUTED HETEROCYCLIC DERIVATIVES AND THEIR PHARMACEUTICAL USE AND COMPOSITIONS” (priority 2007, published 2008).

In brackets after ≈: the same amount, converted by molar mass.

Type in all cases: cell-based, Staphylococcus aureus
One assay deals with Staph aureus 2812. Description: MIC, microtiter broth dilution (CLSI M7-A7), Assay 1, Table 12 column E, no serum. Conditions: for MIC: Staphylococcus aureus, 2812, Staph aureus 2812, Assay 1, no serum; for MIC, column E: Staph aureus 2812, Assay 1, no serum. In a few lines: (§1)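 Testing followed the CLSI M7-A7 dilution standard in microtiter trays, with serum conditions using Mueller-Hinton Broth plus 50% pooled inactivated human serum. Values are the lowest concentrations with no macroscopically visible growth.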
(In general: In broth dilution the organism is exposed to a series of concentrations in liquid medium.)

For assay [1], the system named is Staph aureus 1146. Description: MIC, microtiter broth dilution (CLSI M7-A7), Assay 1, Table 12 column B, no serum. Conditions: for MIC: Staphylococcus aureus, 1146, Staph aureus 1146, Assay 1, no serum; for MIC, column B: Staph aureus 1146, Assay 1, no serum. The method, boiled down:
as §1

For a further assay, the system named is Staph aureus 1095 MRSA. Description: MIC, microtiter broth dilution (CLSI M7-A7), Assay 1, Table 12 column A, no serum. Conditions: Assay 1, no serum; for MIC: Staphylococcus aureus, MRSA. In a few lines: as §1
The test system of a further assay is Staph aureus 2811. Description: MIC, microtiter broth dilution (CLSI M7-A7), Assay 1, Table 12 column D, no serum. The note with it: for MIC: Staphylococcus aureus, 2811, Staph aureus 2811, Assay 1, no serum; for MIC, column D: Staph aureus 2811, Assay 1, no serum. In a few lines: as §1
Assay [2] concerns Staph aureus 1146. Put plainly: MIC in Mueller-Hinton Broth with 50% pooled inactivated human serum, Assay 1, Table 12. Conditions: for MIC: Staphylococcus aureus, 1146, Staph aureus 1146, Assay 1, 50% human serum, read-out: MIC, column C; for MIC, column C: Staph aureus 1146, Assay 1, 50% human serum. The method, boiled down: as §1

Usually MIC stands for the lowest concentration found to suppress growth.

In the case of `COc1ccc2nccc(C(O)CC[C@@H]3CCN(C4CC(Cc5ccccc5)C4)C[C@@H]3C(=O)O)c2c1` (stereo partly drawn) [Example 103, (3R,4R)-1-(3-benzylcyclobutyl)-4-[3-hydroxy-3-(6-methoxyquinolin-4-yl)propyl]piperidine-3-carboxylic acid], the MIC against Staph aureus 2812 came to 0.25 µg/mL (≈ 0.512 µM); against Staph aureus 1146 [1] it was 0.25 µg/mL (≈ 0.512 µM); in the assay on Staph aureus 1095 MRSA it was 0.5 µg/mL (≈ 1.02 µM); against Staph aureus 2811 it was 0.25 µg/mL (≈ 0.512 µM); with Staph aureus 1146 [2] it was 4 µg/mL (≈ 8.19 µM).
With `COc1ccc2nccc(C(O)CC[C@@H]3CCN(C4CC(Oc5ccccn5)C4)C[C@@H]3C(=O)O)c2c1` (stereo partly drawn) [Example 104, (3R,4R)-4-[3-hydroxy-3-(6-methoxyquinolin-4-yl)propyl]-1-[3-(pyridin-2-yloxy)cyclobutyl]piperidine-3-carboxylic acid], the MIC in the assay on Staph aureus 2812, in the assay on Staph aureus 1146 [1], in the assay with Staph aureus 1095 MRSA, in the assay with Staph aureus 2811 and with Staph aureus 1146 [2] was greater than 64 µg/mL throughout.
Consider `COC(=O)[C@H]1CN(C2CC(c3cc(C)no3)C2)CC[C@H]1CCC(O)c1ccnc2ccc(OC)cc12` (stereo partly drawn) [Example 105, methyl (3R,4R)-4-[3-hydroxy-3-(6-methoxyquinolin-4-yl)propyl]-1-[3-(3-methylisoxazol-5-yl)cyclobutyl]piperidine-3-carboxylate], for which the minimal inhibitory concentration (MIC) is 2 µg/mL (≈ 4.05 µM) with Staph aureus 2812; 2 µg/mL (≈ 4.05 µM) against Staph aureus 1146 [1]; 1 µg/mL (≈ 2.03 µM) in the assay on Staph aureus 1095 MRSA; 2 µg/mL (≈ 4.05 µM) in the assay on Staph aureus 2811; greater than 64 µg/mL in the assay on Staph aureus 1146 [2].
`COc1ccc2ncc(F)c(CCCC3(C(=O)O)CCN(C4CC(c5ccccc5)C4)CC3)c2n1` (centres unmarked) [Example 106, 4-(3-(3-fluoro-6-methoxy-1,5-naphthyridin-4-yl)propyl)-1-(3-phenylcyclobutyl)piperidine-4-carboxylic acid]: the minimal inhibitory concentration (MIC) in the assay on Staph aureus 2812 is no more than 0.0625 µg/mL; in the assay on Staph aureus 1146 [1] it was no more than 0.0625 µg/mL; with Staph aureus 1095 MRSA, no more than 0.0625 µg/mL; against Staph aureus 2811, no more than 0.0625 µg/mL; in the assay on Staph aureus 1146 [2] it was 32 µg/mL (≈ 67 µM).
As for `COc1ccc2nccc(CCCC3(C(=O)O)CCN(CC4CC4c4ccccc4)CC3)c2c1` (centres unmarked) [Example 107, 4-[3-(6-methoxyquinolin-4-yl)propyl]-1-{[(1,2)-2-phenylcyclopropyl]methyl}piperidine-4-carboxylic acid], in the assay with Staph aureus 2812, the “MIC, column E” value is 16 µg/mL (≈ 34.9 µM). The “MIC, column B” value with Staph aureus 1146 [1] stood at 64 µg/mL (≈ 140 µM). In addition, in the assay with Staph aureus 1095 MRSA, the “MIC, column A” value was found to be 64 µg/mL (≈ 140 µM). For the same compound, in the assay with Staph aureus 2811, the “MIC, column D” value came to 64 µg/mL (≈ 140 µM). The “MIC, column C” value against Staph aureus 1146 [2] is greater than 64 µg/mL.
In the case of `COc1ccc2ncc(Cl)c(CCCC3(C(=O)O)CCN(C4CC(c5ccccc5)C4)CC3)c2c1` (centres unmarked) [Example 108, 4-[3-(3-chloro-6-methoxyquinolin-4-yl)propyl]-1-(3-phenylcyclobutyl)piperidine-4-carboxylic acid], the MIC against Staph aureus 2812 was no more than 0.0625 µg/mL; against Staph aureus 1146 [1] it was no more than 0.0625 µg/mL; in the assay with Staph aureus 1095 MRSA it was no more than 0.0625 µg/mL; against Staph aureus 2811, no more than 0.0625 µg/mL; with Staph aureus 1146 [2], 64 µg/mL (≈ 130 µM).
`COc1ccc2ncc(Cl)c(CCCC3(C(=O)O)CCN(C4CC(c5ccccc5)C4)CC3O)c2c1` (centres unmarked) [Example 109, 4-[3-(3-chloro-6-methoxyquinolin-4-yl)propyl]-3-hydroxy-1-(3-phenylcyclobutyl)piperidine-4-carboxylic acid]: the MIC against Staph aureus 2812 is 1 µg/mL (≈ 1.96 µM); against Staph aureus 1146 [1] it was 0.5 µg/mL (≈ 0.982 µM); against Staph aureus 1095 MRSA it was 1 µg/mL (≈ 1.96 µM); in the assay with Staph aureus 2811 it was 0.25 µg/mL (≈ 0.491 µM); with Staph aureus 1146 [2], greater than 64 µg/mL.
Take `COc1ccc2nccc(C(O)CC[C@@H]3CCN(C4CC(c5nnc(C)o5)C4)C[C@@H]3C(=O)O)c2c1` (stereo partly drawn) [Example 110, (3R,4R)-4-[3-hydroxy-3-(6-methoxyquinolin-4-yl)propyl]-1-[3-(5-methyl-1,3,4-oxadiazol-2-yl)cyclobutyl]piperidine-3-carboxylic acid]: the MIC with Staph aureus 2812 is greater than 64 µg/mL; in the assay with Staph aureus 1146 [1], 32 µg/mL (≈ 66.6 µM); in the assay with Staph aureus 1095 MRSA, greater than 64 µg/mL; against Staph aureus 2811 it was greater than 64 µg/mL; with Staph aureus 1146 [2], greater than 64 µg/mL.
For the compound `COc1ccc2ncnc(CCCC3(C(=O)O)CCN(C4CC(c5ccccc5)C4)CC3)c2c1` (centres unmarked) [Example 111, 4-[3-(6-methoxyquinazolin-4-yl)propyl]-1-(3-phenylcyclobutyl)piperidine-4-carboxylic acid], the MIC in the assay on Staph aureus 2812 is 1 µg/mL (≈ 2.18 µM); against Staph aureus 1146 [1], 2 µg/mL (≈ 4.35 µM); against Staph aureus 1095 MRSA, 4 µg/mL (≈ 8.7 µM); in the assay with Staph aureus 2811 it was 1 µg/mL (≈ 2.18 µM); with Staph aureus 1146 [2], greater than 64 µg/mL.
On to `COc1ccc2nccc(C(O)CC[C@@H]3CCN(C4CC(c5cc(C)no5)C4)C[C@@H]3C(=O)O)c2c1` (stereo partly drawn) [Example 115, (3R,4R)-4-[3-hydroxy-3-(6-methoxyquinolin-4-yl)propyl]-1-[3-(3-methylisoxazol-5-yl)cyclobutyl]piperidine-3-carboxylic acid], for which the MIC was found to be 16 µg/mL (≈ 33.4 µM) against Staph aureus 2812; 8 µg/mL (≈ 16.7 µM) in the assay with Staph aureus 1146 [1]; 32 µg/mL (≈ 66.7 µM) in the assay on Staph aureus 1095 MRSA; 8 µg/mL (≈ 16.7 µM) against Staph aureus 2811; 64 µg/mL (≈ 133 µM) with Staph aureus 1146 [2].
`COc1ccc2ccnc(CCCC3(C(=O)O)CCN(C4CC(c5ccccc5)C4)CC3)c2c1` (centres unmarked) [Example 121, 4-[3-(7-methoxyisoquinolin-1-yl)propyl]-1-(3-phenylcyclobutyl)piperidine-4-carboxylic acid]: the MIC with Staph aureus 2812 is 1 µg/mL (≈ 2.18 µM); in the assay on Staph aureus 1146 [1] it was 1 µg/mL (≈ 2.18 µM); against Staph aureus 1095 MRSA it was 2 µg/mL (≈ 4.36 µM); against Staph aureus 2811, 1 µg/mL (≈ 2.18 µM); in the assay on Staph aureus 1146 [2], greater than 64 µg/mL.
For the compound `COc1ccc2nccc([C@@H](O)CNC3CCN([C@H]4C[C@H](c5ccccc5)C4)CC3C(=O)O)c2c1` (stereo partly drawn) [Example 122, 4-{[(2R)-2-hydroxy-2-(6-methoxyquinolin-4-yl)ethyl]amino}-1-(trans-3-phenylcyclobutyl)piperidine-3-carboxylic acid], the MIC was determined as 2 µg/mL (≈ 4.21 µM) against Staph aureus 2812; 4 µg/mL (≈ 8.41 µM) against Staph aureus 1146 [1]; 4 µg/mL (≈ 8.41 µM) in the assay with Staph aureus 1095 MRSA; 1 µg/mL (≈ 2.1 µM) against Staph aureus 2811; 16 µg/mL (≈ 33.6 µM) with Staph aureus 1146 [2].
With `COc1ccc2nccc([C@@H](O)CNC3CCN([C@H]4C[C@@H](c5ccccc5)C4)CC3C(=O)O)c2c1` (stereo partly drawn) [Example 123, 4-{[(2R)-2-hydroxy-2-(6-methoxyquinolin-4-yl)ethyl]amino}-1-(cis-3-phenylcyclobutyl)piperidine-3-carboxylic acid], the MIC against Staph aureus 2812 worked out at 32 µg/mL (≈ 67.3 µM); against Staph aureus 1146 [1], 16 µg/mL (≈ 33.6 µM); against Staph aureus 1095 MRSA, 32 µg/mL (≈ 67.3 µM); in the assay with Staph aureus 2811, 16 µg/mL (≈ 33.6 µM); in the assay with Staph aureus 1146 [2], 32 µg/mL (≈ 67.3 µM).
For `COc1ccc2ncc(Cl)c(CCCC3(C(=O)O)CCN(C4CN(c5ccccn5)C4)CC3)c2c1` [Example 126, 4-(3-(3-chloro-6-methoxyquinolin-4-yl)propyl)-1-(1-(pyridin-2-yl)azetidin-3-yl)piperidine-4-carboxylic add], in the assay on Staph aureus 2812, the “MIC, column E” value came out at 4 µg/mL (≈ 8.08 µM). In addition, the “MIC, column B” value with Staph aureus 1146 [1] amounted to 8 µg/mL (≈ 16.2 µM). In the assay with Staph aureus 1095 MRSA, the “MIC, column A” value is greater than 64 µg/mL. The “MIC, column D” value with Staph aureus 2811 is 2 µg/mL (≈ 4.04 µM). The “MIC, column C” value with Staph aureus 1146 [2] was greater than 64 µg/mL.
Turning to `COc1ccc2nccc(C(O)CC[C@@H]3CCN(C4CN(Cc5ccccn5)C4)C[C@@H]3C(=O)O)c2c1` (stereo partly drawn) [Example 127, (3R,4R)-4-(3-hydroxy-3-(6-methoxyquinolin-4-yl)propyl)-1-(1-(pyridine-2-ylmethyl)azetidin-3-yl)piperdine-3-carboxylic acid], the “MIC, column E” value with Staph aureus 2812 is greater than 64 µg/mL. The “MIC, column B” value in the assay with Staph aureus 1146 [1] is greater than 64 µg/mL. In addition, the “MIC, column A” value against Staph aureus 1095 MRSA was greater than 64 µg/mL. Moreover, in the assay with Staph aureus 2811, the “MIC, column D” value is greater than 64 µg/mL. Besides, in the assay with Staph aureus 1146 [2], the “MIC, column C” value was greater than 64 µg/mL.
For `COc1ccc2nccc(C(O)CC[C@@H]3CCN(C4CN(C5CCOCC5)C4)C[C@@H]3C(=O)O)c2c1` (stereo partly drawn) [Example 128, (3R,4R)-4-[3-hydroxy-3-(6-methoxyquinolin-4-yl)propyl]-1-[1-(tetrahydro-2H-pyran-4-yl)azetidin-3-yl] piperidine-3-carboxylic acid], the MIC against Staph aureus 2812, against Staph aureus 1146 [1], against Staph aureus 1095 MRSA, with Staph aureus 2811 and in the assay on Staph aureus 1146 [2] was greater than 64 µg/mL each time.
For the compound `COc1ccc2nccc(C(O)CC[C@@H]3CCN(C4CN(C5CCOC5)C4)C[C@@H]3C(=O)O)c2c1` (stereo partly drawn) [Example 129, (3R,4R)-4-[3-hydroxy-3-(6-methoxyquinolin-4-yl)propyl]-1-[1-(tetrahydrofuran-3-yl)azetidin-3-yl] piperidine-3-carboxylic acid], the MIC in the assay with Staph aureus 2812, in the assay on Staph aureus 1146 [1], against Staph aureus 1095 MRSA, with Staph aureus 2811 and in the assay with Staph aureus 1146 [2] was greater than 64 µg/mL throughout.
Take `COc1ccc2nccc(C(O)CC[C@@H]3CCN(C4CN(C5CCCCC5)C4)C[C@@H]3C(=O)O)c2c1` (stereo partly drawn) [Example 131, (3R,4R)-1-(1-cyclohexylazetidin-3-yl)-4-[3-hydroxy-3-(6-methoxyquinolin-4-yl)propyl]piperidine-3-carboxylic acid]: the MIC against Staph aureus 2812, against Staph aureus 1146 [1], against Staph aureus 1095 MRSA, against Staph aureus 2811 and in the assay on Staph aureus 1146 [2] was greater than 64 µg/mL throughout.
For the compound `COc1ccc2nccc(C(O)CC[C@@H]3CCN(C4CN(C5CCCC5)C4)C[C@@H]3C(=O)O)c2c1` (stereo partly drawn) [Example 132, (3R,4R)-1-(1-cyclopentylazetidin-3-yl)-4-[3-hydroxy-3-(6-methoxyquinolin-4-yl)propyl]piperidine-3-carboxylic acid], the MIC in the assay on Staph aureus 2812, against Staph aureus 1146 [1], in the assay on Staph aureus 1095 MRSA, against Staph aureus 2811 and with Staph aureus 1146 [2] was greater than 64 µg/mL in each case.
